Test results published in patent US20110173718A1, “HERBICIDE TOLERANT PLANTS” (SYNGENTA CROP PROTECTION, INC., priority 2008, published 2011).

System: weeds
Assay: Glasshouse weed control by HST/HPPD (mesotrione) mixtures, post-emergence
Format: in vivo
Conditions: post-emergence; for % damage, 1 g ai ha^−1 mesotrione / % damage, no-mesotrione: 14 DAT; for colby: difference to Colby expectation
Procedure: Weed seeds are planted out in trays containing suitable soil (for example 50% peat, 50% John Innes soil no 3) and grown in the glass house conditions under 24-27° C. day; 18-21° C. night and approximately a 14 h (or longer in UK summer) photoperiod. Humidity is ˜65% and light levels up to 2000 μmol/m^2 at bench level. Trays are sprayed with test chemicals dissolved in water with 0.2-0.25% X-77 surfactant and sprayed from a boom on a suitable track sprayer moving at about 2 mph in a suitable track sprayer (for example a DeVries spray chamber with the nozzle about 2 inches from the plant tops). Spray volume is suitably 500-1000 l/ha. Sprays are carried out both pre-emergence and over small plants at about 7-12 d post-emergence
Plants are assessed 14 DAT and herbicidal damage is scored on a scale from 0 to 100%. The HST inhibitor compound 2.30 (designated compound A in table 16 and 17), haloxydine (compound 1.1) and compound 2.13 (designated compound AE in tables 16 and 17) are sprayed at rates between 0 and 500 g/ha.

[1] = ALOMY, 16 g/ha + 1 g ai/ha mesotrione
[2] = ALOMY, 31 g/ha + 1 g ai/ha mesotrione
[3] = ALOMY, 63 g/ha + 1 g ai/ha mesotrione
[4] = ALOMY, 125 g/ha + 1 g ai/ha mesotrione
[5] = ALOMY, 250 g/ha + 1 g ai/ha mesotrione
[6] = ALOMY, 500 g/ha + 1 g ai/ha mesotrione
[7] = ECHCG, 16 g/ha + 1 g ai/ha mesotrione
[8] = ECHCG, 31 g/ha + 1 g ai/ha mesotrione
[9] = ECHCG, 63 g/ha + 1 g ai/ha mesotrione
[10] = ECHCG, 125 g/ha + 1 g ai/ha mesotrione
[11] = ECHCG, 250 g/ha + 1 g ai/ha mesotrione
[12] = ECHCG, 500 g/ha + 1 g ai/ha mesotrione
[13] = SETFA, 16 g/ha + 1 g ai/ha mesotrione
[14] = SETFA, 31 g/ha + 1 g ai/ha mesotrione
[15] = SETFA, 63 g/ha + 1 g ai/ha mesotrione
[16] = SETFA, 125 g/ha + 1 g ai/ha mesotrione
[17] = SETFA, 250 g/ha + 1 g ai/ha mesotrione
[18] = SETFA, 500 g/ha + 1 g ai/ha mesotrione

O=c1c(-c2c(F)ccc(F)c2Cl)c(O)c2cccnc2n1CC(F)F [Compound 2.13]
% damage, 1 g ai ha^−1 mesotrione [1]: 0% | colby [1]: 0 | % damage, no-mesotrione (ALOMY, 16 g/ha): 0% | % damage, 1 g ai ha^−1 mesotrione [2]: 2% | colby [2]: 2 | % damage, no-mesotrione (ALOMY, 31 g/ha): 0% | % damage, 1 g ai ha^−1 mesotrione [3]: 3% | colby [3]: 3 | % damage, no-mesotrione (ALOMY, 63 g/ha): 0% | % damage, 1 g ai ha^−1 mesotrione [4]: 0% | colby [4]: 0 | % damage, no-mesotrione (ALOMY, 125 g/ha): 0% | % damage, 1 g ai ha^−1 mesotrione [5]: 3% | colby [5]: 2 | % damage, no-mesotrione (ALOMY, 250 g/ha): 2% | % damage, 1 g ai ha^−1 mesotrione [6]: 5% | colby [6]: −2 | % damage, no-mesotrione (ALOMY, 500 g/ha): 7% | % damage, 1 g ai ha^−1 mesotrione [7]: 5% | colby [7]: −3 | % damage, no-mesotrione (ECHCG, 16 g/ha): 0% | % damage, 1 g ai ha^−1 mesotrione [8]: 5% | colby [8]: −3 | % damage, no-mesotrione (ECHCG, 31 g/ha): 0% | % damage, 1 g ai ha^−1 mesotrione [9]: 8% | colby [9]: 0 | % damage, no-mesotrione (ECHCG, 63 g/ha): 0% | % damage, 1 g ai ha^−1 mesotrione [10]: 15% | colby [10]: 7 | % damage, no-mesotrione (ECHCG, 125 g/ha): 0% | % damage, 1 g ai ha^−1 mesotrione [11]: 22% | colby [11]: 13 | % damage, no-mesotrione (ECHCG, 250 g/ha): 0% | % damage, 1 g ai ha^−1 mesotrione [12]: 20% | colby [12]: 12 | % damage, no-mesotrione (ECHCG, 500 g/ha): 0% | % damage, 1 g ai ha^−1 mesotrione [13]: 0% | colby [13]: 0 | % damage, no-mesotrione (SETFA, 16 g/ha): 0% | % damage, 1 g ai ha^−1 mesotrione [14]: 0% | colby [14]: 0 | % damage, no-mesotrione (SETFA, 31 g/ha): 0% | % damage, 1 g ai ha^−1 mesotrione [15]: 0% | colby [15]: 0 | % damage, no-mesotrione (SETFA, 63 g/ha): 0% | % damage, 1 g ai ha^−1 mesotrione [16]: 0% | colby [16]: 0 | % damage, no-mesotrione (SETFA, 125 g/ha): 0% | % damage, 1 g ai ha^−1 mesotrione [17]: 0% | colby [17]: 0 | % damage, no-mesotrione (SETFA, 250 g/ha): 0% | % damage, 1 g ai ha^−1 mesotrione [18]: 0% | colby [18]: 0 | % damage, no-mesotrione (SETFA, 500 g/ha): 0%
